One series concerns the target T1, JAK2 JH2 (Homo sapiens, UniProt O60674).
T1 construct: Enzyme: JAK2 JH2, His-Avi-Tag, Biotin-Labeled (BPS Bioscience, Cat #79074) 1 nM; His; purchased BPS Bioscience 79074
The series is described as follows: JAK2 JH2 TR-FRET Assay. Format: binding. The settings on record: JAK2 JH2 1 nM, Tracer ZE84-0003 10 nM. On the procedure:
Assay Buffer 1×: • 20 mM HEPES pH 7.2-7.4; • 10 mM MgCl2; • 0.015% Brij-35; • 2 mM DTT; • 0.05 mg/ml BSA.
Final assay concentrations: • DMSO: 0.25%; • Streptavidin Tb-cryptate (Cisbio, Cat #610SATLB) 0.2 nM; • Enzyme: JAK2 JH2, His-Avi-Tag, Biotin-Labeled (BPS Bioscience, Cat #79074) 1 nM; • Probe: Tracer ZE84-0003 (ChemRar) 10 nM.
Materials: • Reaction plate: ProxiPlate-384 Plus White Plate (PerkinElmer); • Dilution plate: Diamond Well Plate (Axygen, Cat #P-384-120 SQ-C-S); • Compounds plate: Diamond Well Plate (Axygen, Cat #P-384-120 SQ-C-S).
Assay protocol: • 1. Prepare 400× solutions of compounds in DMSO into Compounds plate; • 2. Prepare Dilution plate: add 39 μL of 1× Assay buffer per well of Dilution plate; • 3. Prepare 2×Tb-cryptate mix in 1× Assay buffer. Add 10 μL of 2×Tb-cryptate mix to K-(Tb-cryptate and Probe without Enzyme) wells and blank (Tb-cryptate without Probe and Enzyme) wells; • 4. Add JAK2 JH2 into the rest of 2×Tb-cryptate mix to make 2×JAK2 JH2+Tb-cryptate mix. Add 10 μL per well into Reaction plate; • 5. Centrifuge plate at 200 g for 1 min; • 6. Dilute 1 μL of 400× compounds in 39 μL 1× Assay buffer in Dilution plate; • 7. Add 2 μL of 10× compounds from Dilution plate to Reaction plate with 10 μL of JAK2 JH2+Tb-cryptate mix; • 8. Centrifuge plate at 200 g for 1 min; • 9. Pre-incubate Reaction plate with compounds 15 min; • 10. Prepare 2.5× Tracer mix; • 11. Add 8 μL of 2.5× Tracer mix into appropriate wells of Reaction plate; • 12. Centrifuge plate at 800 g for 3 min; • 13. Incubate at rt for 15 min; • 14. Measure Fluorescence using Microplate Reader (Ex: TR, Em1/Em2: 482/520). The results of this assay are shown in the Table B. The values of EC50 shown as a letters A-D, where: A≤0.01 μM; 0.01 μM<B≤0.05 μM; 0.05 μM<C≤0.1 μM; D>0.1.
A general note: TR-FRET usually uses a lanthanide donor and a delayed reading to cut background.

Series [1] in a line: Proliferation inhibition assay (CellTiter-Glo), Ba/F3 JAK2 wt. Format: cell-based. Conditions: mouse, Ba/F3 (JAK2 wt) cells, with 10 ng/ml rmIL-3, 72 h; read-out: Ba/F3 JAK2 wt + IL3, CC50 3 days. On the procedure:
(§1) Ba/F3 (JAK2 wt) (ABM, T3076) cells and Ba/F3 (JAK2 V617F) (WuXi AppTec) cells were grown in RPMI-1640 (Gibco, cat. number 21870) supplemented with 10% FBS (Hyclone Laboratories Inc, Cat #SV30160.03), 1× Antibiotic-antimycotic (Gibco, Cat #15240-062), 2× Sodium pyruvate (Paneco, cat #F023), 2× Essential amino acids (Paneco, cat #F115/100), 1× Non-Essential amino acids (Paneco, cat #F116) at 37° C. in 5% CO2 atmosphere.
(§2) For the proliferation inhibition assay Ba/F3 (JAK2 wt) and Ba/F3 (JAK2 V617F) cells were seeded into a CellBIND® 384-well Flat Clear Bottom Black Polystyrene Microplates (Corning, USA, Cat #3770) at a density of 4000 cells per well in complete culture medium with or without 10 ng/ml rmIL-3 (RD systems, USA, Cat #403-ML-025) using Biomek FX/NX (384) liquid handler, 45 μl of cell suspension in complete culture medium per well. 500× compound's stocks in DMSO (Sigma Cat #D2650) were prepared in compounds plate (Diamond Well Plate, Axigen, Cat #P-384-120 SQ-C-S) applying Biomek 2000. 1 μl of 500× compounds stock was added to 49 μl of complete culture medium into Dilution plate (Diamond Well Plate, Axigen, Cat #P-384-120 SQ-C-S), mixed and then 5 μl of 10× compounds solution was transferred to cells using Biomek FX/NX (384) liquid handler. The centrifugation at 100 g for 1 min at Eppendorf 5810 followed. Final DMSO concentration in assay was 0.2%. All treatments were performed in technical and biological duplicates. Treated cells were incubated for 72 h at 37° C. with 5% CO2.
(§3) After 3 days of incubation, CellTiter-Glo Luminescent Cell Viability Assay (Promega) was performed. 10 μl of CellTiter-Glo (Promega, CAT #G7572) was added to the cells using Biomek FX/NX (384) liquid handler. The assay plate was centrifuged at 100 g for 1 min and luminescence signal was measured using Microplate Reader (CLARIOStar).

In another series the test system is Ba/F3 (JAK2 V617F) cells. The series is described as follows: Proliferation inhibition assay (CellTiter-Glo), Ba/F3 JAK2 V617F. Format: cell-based. Conditions: Mus musculus, BaF3; without IL3, 72 h; read-out: Ba/F3 JAK2 V617F, CC50 3 days. Here is the method:
as §1, §2, §3
Background: In ATP-based viability assays light output follows the ATP content of the culture.

T1 sequence (O60674 545-809 limits assumed): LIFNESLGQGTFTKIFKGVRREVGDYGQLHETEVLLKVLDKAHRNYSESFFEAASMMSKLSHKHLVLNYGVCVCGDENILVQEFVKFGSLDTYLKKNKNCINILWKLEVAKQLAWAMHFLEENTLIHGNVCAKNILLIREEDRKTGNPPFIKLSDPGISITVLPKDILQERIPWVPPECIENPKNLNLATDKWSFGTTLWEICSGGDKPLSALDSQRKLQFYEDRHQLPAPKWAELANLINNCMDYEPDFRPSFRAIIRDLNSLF

What is called EC50 is the concentration at which the effect is half-maximal. In the case of `COc1c(Nc2nc(Nc3cnn(CCN(C)C)c3)ncc2C(N)=O)cccc1-c1ncn(C)n1` [Compound 5, 2-((1-(2-(dimethylamino)ethyl)-1H-pyrazol-4-yl)amino)-4-((2-methoxy-3-(1-methyl-1H-1,2,4-triazol-3-yl)phenyl)amino)pyrimidine-5-carboxamide], the EC50 at JAK2 JH2 lay in the range of 10 to 50 nM.
The same measure, in the same setting: the result for `COc1c(Nc2nc(Nc3cn(C)nc3C)ncc2C(N)=O)cccc1-c1ncn(C)n1` [Compound 13, 2-[(1,3-dimethylpyrazol-4-yl)amino]-4-[2-methoxy-3-(1-methyl-1,2,4-triazol-3-yl)anilino]pyrimidine-5-carboxamide] reads greater than 100 nM; that for `CCCn1nc(C)c(Nc2ncc(C(N)=O)c(Nc3cccc(-c4ncn(C)n4)c3OC)n2)c1C` [Compound 19, 2-[(3,5-dimethyl-1-propyl-pyrazol-4-yl)amino]-4-[2-methoxy-3-(1-methyl-1,2,4-triazol-3-yl)anilino]pyrimidine-5-carboxamide], greater than 100 nM.
On to `COc1c(Nc2nc(Nc3c(C)nn(C(C)C)c3C)ncc2C(N)=O)cccc1-c1ncn(C)n1` [Compound 20, 2-[(1-isopropyl-3,5-dimethyl-pyrazol-4-yl)amino]-4-[2-methoxy-3-(1-methyl-1,2,4-triazol-3-yl)anilino]pyrimidine-5-carboxamide], for which, on JAK2 JH2, the EC50 was greater than 100 nM.
On to `COc1c(Nc2nc(Nc3cnn(CC45CC6CC(CC(C6)C4)C5)c3)ncc2C(N)=O)cccc1-c1ncn(C)n1` [Compound 23, 2-[[1-(1-adamantylmethyl)pyrazol-4-yl]amino]-4-[2-methoxy-3-(1-methyl-1,2,4-triazol-3-yl)anilino]pyrimidine-5-carboxamide], for which the concentration for a half-maximal effect (EC50) on JAK2 JH2 is greater than 100 nM.
Still for that read-out and setting: the result for `CCCCCCCCn1cc(Nc2ncc(C(N)=O)c(Nc3cccc(-c4ncn(C)n4)c3OC)n2)cn1` [Compound 25, 4-[2-methoxy-3-(1-methyl-1,2,4-triazol-3-yl)anilino]-2-[(1-octylpyrazol-4-yl)amino]pyrimidine-5-carboxamide] reads greater than 100 nM.
On JAK2 JH2, `COc1c(Nc2nc(Nc3cnn(CCC4CCCCN4C)c3)ncc2C(N)=O)cccc1-c1ncn(C)n1` (stereo not drawn) [Compound 27, 4-[2-methoxy-3-(1-methyl-1,2,4-triazol-3-yl)anilino]-2-[[1-[2-(1-methyl-2-piperidyl)ethyl]pyrazol-4-yl]amino]pyrimidine-5-carboxamide] displayed an EC50 greater than 100 nM.
At JAK2 JH2, `COc1c(Nc2nc(Nc3cnn(C(C)C)c3)ncc2C(=O)N(C)C)cccc1-c1ncn(C)n1` [Compound 31, 2-[(1-Isopropyl-1H-pyrazol-4-yl)amino]-4-{[2-methoxy-3-(1-methyl-1H-1,2,4-triazol-3-yl)phenyl]amino}-N,N-dimethylpyrimidine-5-carboxamide] yielded an EC50 greater than 100 nM.
Take `COc1c(Nc2nc(Nc3cnn(C4CCN(C)CC4)c3)ncc2C(N)=O)cccc1-c1nc2ccccc2o1` [Compound 32, 4-[3-(1,3-benzoxazol-2-yl)-2-methoxy-anilino]-2-[[1-(1-methyl-4-piperidyl)pyrazol-4-yl]amino]pyrimidine-5-carboxamide]: the CC50 at 72 h in series [1] was in the range of 1000 to 5000 nM. Moreover, in the series with Ba/F3 (JAK2 V617F) cells, the CC50 fell in the range of 500 to 1000 nM. The concentration giving a half-maximal response (EC50) on JAK2 JH2 fell in the range of 10 to 50 nM.
Take `COc1c(Nc2nc(Nc3cnn(C4CCN(C(C)C)CC4)c3)ncc2C(N)=O)cccc1-c1nc2ccccc2o1` [Compound 33, 4-[3-(1,3-benzoxazol-2-yl)-2-methoxy-anilino]-2-[[1-(1-isopropyl-4-piperidyl)pyrazol-4-yl]amino]pyrimidine-5-carboxamide]: in series [1], the CC50 at 72 h was in the range of 1000 to 5000 nM. For the same molecule, in the series with Ba/F3 (JAK2 V617F) cells, the CC50 was no more than 500 nM. The same molecule returned a concentration giving a half-maximal response (EC50) at JAK2 JH2 of 10 to 50 nM.
`COc1c(Nc2nc(Nc3cnn(CCN(CC(C)C)CC(C)C)c3)ncc2C(N)=O)cccc1-c1nc2ccccc2o1` [Compound 34]: in series [1], the CC50 at 72 h lay within 5000 to 10000 nM. Moreover, the CC50 in the series with Ba/F3 (JAK2 V617F) cells was in the range of 1000 to 5000 nM. In addition, the EC50 on JAK2 JH2 is greater than 100 nM.
Consider `COc1c(Nc2nc(Nc3cnn(C4CCN(C(C)C)CC4)c3)ncc2C(N)=O)cccc1-c1ncn(C)n1` [Compound 35, 2-[[1-(1-isopropyl-4-piperidyl)pyrazol-4-yl]amino]-4-[2-methoxy-3-(1-methyl-1,2,4-triazol-3-yl)anilino]pyrimidine-5-carboxamide], for which the CC50 at 72 h in series [1] is greater than 10000 nM. In addition, the CC50 with Ba/F3 (JAK2 V617F) cells is 1000 to 5000 nM. At JAK2 JH2, this molecule gave an EC50 of 10 to 50 nM.
For `COc1c(Nc2nc(Nc3cnn(C)c3)ncc2C(N)=O)cccc1-c1cccnc1` [Compound 36, 4-[2-methoxy-3-(3-pyridyl)anilino]-2-[(1-methylpyrazol-4-yl)amino]pyrimidine-5-carboxamide] the same measures were greater than 10000 nM, greater than 10000 nM and 10 to 50 nM.
For `COc1c(Nc2nc(Nc3cnn(C)c3)ncc2C(N)=O)cccc1-c1ccncc1` [Compound 37, 4-[2-methoxy-3-(4-pyridyl)anilino]-2-[(1-methylpyrazol-4-yl)amino]pyrimidine-5-carboxamide], the CC50 at 72 h in series [1] was 5000 to 10000 nM. The CC50 in the series with Ba/F3 (JAK2 V617F) cells fell in the range of 5000 to 10000 nM. This molecule gave a 50% effective concentration (EC50) on JAK2 JH2 of 10 to 50 nM.
On to `COc1c(Nc2nc(Nc3cnn(C(C)C)c3)ncc2C(N)=O)cccc1-c1ccccn1` [Compound 38, 2-[(1-isopropylpyrazol-4-yl)amino]-4-[2-methoxy-3-(2-pyridyl)anilino]pyrimidine-5-carboxamide], for which the CC50 at 72 h in series [1] is 5000 to 10000 nM. Further, the CC50 in the series with Ba/F3 (JAK2 V617F) cells is no more than 500 nM. The molecule also returned an EC50 on JAK2 JH2 of 10 to 50 nM.
On to `COc1c(Nc2nc(Nc3cnn(C4CCCCC4)c3)ncc2C(N)=O)cccc1-c1ccccn1` [Compound 39, 2-[(1-cyclohexylpyrazol-4-yl)amino]-4-[2-methoxy-3-(2-pyridyl)anilino]pyrimidine-5-carboxamide], for which the CC50 at 72 h in series [1] is 5000 to 10000 nM. For the same molecule, the CC50 in the series with Ba/F3 (JAK2 V617F) cells was no more than 500 nM. For the same molecule, the EC50 at JAK2 JH2 was 50 to 100 nM.
For the molecule `COc1c(Nc2nc(Nc3cnn(C4CCOCC4)c3)ncc2C(N)=O)cccc1-c1ccccn1` [Compound 40, 4-[2-methoxy-3-(2-pyridyl)anilino]-2-[(1-tetrahydropyran-4-ylpyrazol-4-yl)amino]pyrimidine-5-carboxamide], the CC50 at 72 h in series [1] lay within 5000 to 10000 nM. Besides, in the series with Ba/F3 (JAK2 V617F) cells, the CC50 is no more than 500 nM. Further, the concentration for a half-maximal effect (EC50) at JAK2 JH2 lay in the range of 10 to 50 nM.
`COc1c(Nc2nc(Nc3cnn(CC(C)C)c3)ncc2C(N)=O)cccc1-c1ncn(C)n1` [Compound 58, 2-[(1-isobutylpyrazol-4-yl)amino]-4-[2-methoxy-3-(1-methyl-1,2,4-triazol-3-yl)anilino]pyrimidine-5-carboxamide]: the CC50 at 72 h in series [1] fell in the range of 1000 to 5000 nM. Besides, the CC50 in the series on Ba/F3 (JAK2 V617F) cells lay in the range of 500 to 1000 nM.
Consider `COc1c(Nc2nc(Nc3cnn(CC(F)(F)F)c3)ncc2C(N)=O)cccc1-c1ncn(C)n1` [Compound 59], for which the CC50 at 72 h in series [1] was 5000 to 10000 nM. The CC50 with Ba/F3 (JAK2 V617F) cells is 1000 to 5000 nM.

The values are drawn from patent US20260217688A1, “INHIBITORS OF JAK2” (Llydaw Therapeutics, Inc., priority 2022, published 2026).
